Consider 2 compounds from patent publication US7714014B2, “Targeting GLI proteins in human cancer by small molecules” (The Regents of the University of California, priority 2005, dated 2010).

Series [1] has as its system human hepatocellular carcinoma cell lines HEPG2 and SK-Hep-1. In words: Cell survival assay (crystal violet). The format is cell-based. Conditions: for cell killing: 50 μM. Here is the method: (§1) Typically, the small molecule compounds of the present invention were dissolved in DMSO at a concentration of 30 mM. The small molecule compounds were then tested under cell culture conditions at different concentrations ranging from 0, 10, 30, 50, to 100 uM. To determine cell survival after treatment, the cells were incubated with the small molecule compounds in 6-well plates for about 3 days. After removal of the cell culture medium, 1-ml of 0.5% crystal violet solution (prepared in 20% ethanol and 20% methanol) was added to stain the cells for 5 min. Then the crystal violet solution was rinsed clean with tap water. Cell survival was estimated based on the density of crystal stained plates.
The cell-based cytotoxicity assay described herein was used to determine the effect of small molecule compounds FN1-5 and FN1-8 in the human hepatocellular carcinoma cell lines HEPG2 and SK-Hep-1. Viability of these cells was analyzed after treatment with 10, 30 and 50 μM FN1-5 or FN1-8.

For series [2], the system named is human sarcoma cell lines MG63 and MNNG. Put plainly: Cell survival assay (crystal violet). It is filed as cell-based. As to conditions: FN1-8 at 50 μM; 10, 30 and 50 μM tested. Here is the method:
as §1
The cell-based cytotoxicity assay described herein was used to determine the effect of small molecule compounds FN1-5 and FN1-8 in the human sarcoma cell lines MG63 and MNNG. Viability of these cells was analyzed after treatment with 10, 30 and 50 μM FN1-5 or FN1-8.

Series [3] relates to human prostate cancer cell line LnCAP. In words: Cell survival assay (crystal violet). It is filed as cell-based. Conditions: FN1-8 at 50 μM, FN1-5 30 and 50 μM. Here is the method:
as §1
The cell-based cytotoxicity assay described herein was used to determine the effect of small molecule compounds FN1-5 and FN1-8 on the human prostate cancer cell line LnCAP. Viability of LnCAP cells was analyzed after treatment with 30 and 50 μM FN1-5 and after treatment with 10, 30, and 50 μM FN1-8.

Series [4] concerns normal human renal cells. Put plainly: Cell survival assay (crystal violet). It is filed as cell-based. Conditions: FN1-5 30 and 50 μM; FN1-8 10, 30, and 50 μM; 3 days. Here is the method: as §1
The cell killing effect of small molecule compounds FN1-5, and FN1-8 at different doses was examined in normal human renal cells. Normal renal cells were plated in 6-well plates and incubated with 30 and 50 μM of compound FN1-5 and 10, 30, and 50 μM FN1-8 for 3 days, in the same manner as described herein for similar other experiments.

The subject of series [5] is Tcf-mediated gene transcription (canonical Wnt signaling) in colon cancer cell line SW480. Put plainly: TOPFLASH (TOP/FOP) assay. It is filed as cell-based, human. Here is the method:
(§2) Cells were plated in 12-well plates. The TOPFLASH or FOPFLASH reporter plasmid (Upstate; Charlottesville, Va.) was transfected transiently into cells as described above. Tcf-mediated gene transcription was determined by the ratio of pTOPFLASH:pFOPFLASH luciferase activity, each was normalized to luciferase activities of the pRL-TK reporter (co-transfected internal control). All experiments were performed in triplicate, and repeated three times.
Regulation of TOP/FOP activity by the same compounds as described above was also analyzed in the colon cancer cell line SW480.

The subject of series [6] is Primary cultured mesothelioma. In words: Apoptosis analysis (Annexin V FITC, flow cytometry). As to conditions: 3 days. The format is cell-based, human. Here is the method:
Fresh cancer tissue and adjacent normal tissue from patients undergoing curative primary resection of their tumors were collected at the time of surgery (IRB approval H8714-15319-040), and immediately snap-frozen in liquid nitrogen. These tissue samples were kept at −170° C. in a liquid nitrogen freezer until further use. Primary tissue cultures were prepared as follows: Fresh cancer tissue was obtained with consent from patients undergoing resection, cut into small pieces (1-2 mm in diameter), and then digested with Collagenase A (Roche Applied Science, Indianapolis, Ind.) at room temperature for 2 hours according to manufacture's protocol. Single cells from the digestion were spun down and the cell pellets were washed twice using RPMI 1640 supplemented with 10% fetal bovine serum, penicillin (100 IU/ml) and streptomycin (100 μg/ml). Then, the cells were resuspended in the same medium and cultured in 6-well plates at 37° C. in a humid incubator with 5% CO2 until they were ready for further treatments.
(§3) Apoptosis was analyzed by using an Annexin V FITC Apoptosis Detection Kit (Biosource, Camarillo, Calif.), according to the manufacturer's protocol. After treatment with different small molecule compounds at various concentrations for about 3 days, cells were harvested by trypsinization, stained and immediately analyzed by flow cytometry (FACScan; Decton Dickinson, Franklin Lake, N.J.). Early apoptotic cells with exposed phosphatidylserine but intact cell membranes will bind to Annexin V-FITC, but not propidium iodide (PI). Cells in necrotic or late apoptotic stages will be labeled with both Annexin V-FITC and PI. “% apoptotic cells” or “% apoptosis” refers to the combined early and late apoptotic cells.
Next, flow cytometry was used to examine apoptosis after the treatment of small molecule compound FN1-5 at different doses (10 μM, 30 μM and 50 μM) for 3 days in primary cultured human mesothelioma cells freshly made from tissue samples.
A general note: Flow cytometry measures light scatter and fluorescence of single cells or particles in a stream.

The subject of series [7] is LnCAP (prostate cancer). The description is as above. The format is cell-based, human. Conditions: 3 days. Here is the method:
as §3
Flow cytometry was also used to examine apoptosis induced by molecule compounds FN1-5 and FN1-8 in LnCAP cells. […] For example, app.

Series [8] concerns Tcf-mediated gene transcription (canonical Wnt signaling) in colon cancer cell line HCT116. Put plainly: TOPFLASH (TOP/FOP) assay. The format is cell-based, human. Conditions: HCT116, 30 μM; for TOP/FOP activity: 18-24 hours. Here is the method: as §2
As another specificity test of the small molecule compounds of the invention, it was tested whether small molecule compounds FN1-5, FN1-7, FN1-8, FN1-9U, FN1-9S, FN2-1, and FN3-5 could regulate the transcription activity of the canonical Wnt signaling by using TOP/FOP assay.

Series [9] relates to mesothelioma cell lines MS-1 and REN. In words: Cell survival assay (crystal violet). Conditions: 1, 10, and 30 μM, 3 days. The format is cell-based, human. Here is the method:
as §1
(§4) Cell killing was also tested using mesothelioma cell lines H290, 211H, MS1 and REN and different doses of the small molecule compounds FN1-5 and FN1-8. Cells were plated in 6-well plates and incubated with 1, 10, and 30 μM of each compound for 3 days, as described herein. […] (data not shown).

The subject of series [10] is mesothelioma cell lines H290 and 211H. Put plainly: Cell survival assay (crystal violet). It is filed as cell-based, human. As to conditions: 30 μM, 3 days. Here is the method:
as §1, §4

For series [11], the system named is human gastric cancer cell lines NUGC3, MNK28, and AGS. Put plainly: Cell survival assay (crystal violet). It is filed as cell-based. Conditions: for cell killing: 50 μM. Here is the method: as §1
The cell-based cytotoxicity assay described herein was used to determine the effect of small molecule compounds FN1-5 and FN1-8 in the human gastric cancer cell lines NUGC3, MNK28, and AGS. Viability of these cells was analyzed after treatment with 10, 30 and 50 μM FN1-5 or FN1-8.

On to `O=C(NCCCCCO)C1C(c2ccccc2)=NN(c2ccccc2)C1c1ccccc1` (centres unmarked) [FN1-5, N-(5-Hydroxypentyl)-1,3,5-triphenyl-4,5-dihydro-pyrazole-4-carboxyamide], for which the cell killing result in series [1] was “dramatic cell killing”; in [2], “No significant cell killing”; in series [3] it was “much lesser cell killing effect”; in [9], “no noticeable effect”; in [10], “Dramatic cell killing”; in series [11], “dramatic cell killing”. The “cell killing effect in normal cells” value in [4] was “No noticeable cell killing effect”. For the same compound, the values for the TOP/FOP activity entry in series [5] and in [8] were “lesser effect” and “down-regulate TOP/FOP activity dramatically”, respectively. Also, the “% of apoptotic cells” value in series [6] (10 μM) came out at 12.3%; in [6] (30 μM) it was 15.8%; in series [6] (50 μM), 18.3%; in series [7] (30 μM), 7.7%; in [7] (50 μM), 16.3%.

For the compound `O=C(NCCc1ccc(O)cc1)C1C(c2ccccc2)=NN(c2ccccc2)C1c1ccccc1` (centres unmarked) [FN1-8, N-(2-(4-Hydroxyphenyl)ethyl)-1,3,5-triphenyl-4,5-dihydro-pyrazole-4-carboxyamide], the “cell killing potency compared with FN1-5” value in series [1] and in series [11] was “more potent” each time. Further, the cell killing entry is “dramatic cell killing” in [1]; “dramatic cell killing” in series [2]; “dramatic cell killing” in [3]; “no noticeable effect” in [9]; “Dramatic cell killing” in series [10]; “dramatic cell killing” in series [11]. Besides, the “cell killing effect in normal cells” value in series [4] is recorded as “No noticeable cell killing effect”. The “reduction of TOP/FOP activity” value in [5] is given as “about 32%”; in series [8] it was “about 36%”. Also, the “% of apoptotic cells” value in series [6] (10 μM) worked out at 13.2%; in [6] (30 μM), 14.7%; in series [6] (50 μM), 33.6%; in [7] (10 μM), 6.9%; in [7] (30 μM), 11.0%; in series [7] (50 μM), 41.5%. Also, the TOP/FOP activity entry in series [8] is listed as “down-regulate TOP/FOP activity dramatically”.
